Values joined by “and” are separate entries in the source; they are usually repeats but may differ in a detail not shown here. Equal values may be shown once. “Also recorded” adds a separate entry of the source.
How the values were obtained:
β-amyloid [1] = target: T1, β-amyloid (Homo sapiens, UniProt P05067); assay: β-amyloid concentration in plasma and whole blood treated with EPPS (APP/PS1 transgenic mouse); set-up: tissue Jackson Laboratory (mice); host or cells: plasma / whole blood of female APP/PS1 transgenic mice; details: 9-month-old APP/PS1 mice
T1 sequence (P05067 672-713 limits assumed): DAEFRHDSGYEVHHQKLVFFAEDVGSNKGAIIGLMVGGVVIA
Method: 9-month-old female APP/PS1 transgenic mice were used as test animals.
The transgenic APP/PS1 mouse model was B6C3-Tg(APPswe,PSEN1dE9)85Dbo/Mmjax purchased from the Jackson Laboratory (USA) and bred and used for experiments under the guideline of the Animal Care and Use Committee.
Sample treatment and β-amyloid concentration measurement were conducted in the same manner as in Example 1.

β-amyloid [2] = target: T1, β-amyloid; assay: β-amyloid monomer concentration in plasma and whole blood treated with EPPS (APP/PS1/Tau transgenic mouse); set-up: tissue Jackson Laboratory (mice); host or cells: plasma / whole blood of 5-month-old female APP/PS1/Tau transgenic mice, treated ex vivo with EPPS; details: 5-month-old APP/PS1/Tau mice
Source text: 5-month-old female APP/PS1/Tau transgenic mice were used as test animals.
The transgenic APP/PS1/Tau mouse model was B6;129-Psen1tm1MpmTg(APPSwe,tauP301L)1Lfa/Mmjax purchased from the Jackson Laboratory (USA) and maintained and used for experiments under the guideline of the Animal Care and Use Committee.
Blood was collected in K2 EDTA-treated vacuum tube containing Roche Complete Mini (protease inhibitor) solution and centrifuged. Plasma separated from the cell fraction was collected in an Eppendorf tube and prepared into 0.1-mL samples, which were used immediately or stored at −80° C. for later use. Whole blood was collected in an Eppendorf tube by treating with EPPS and separating plasma from the cell fraction and prepared into 0.1-mL samples, which were used immediately for β-amyloid concentration measurement or stored at −80° C. for later use.
The plasma was treated with water (control group) or EPPS (EPPS group).
As for the EPPS group, 15 μL of the plasma was treated with 5 μL of 400 mM EPPS, so that the final EPPS concentration was 100 mM. As for the control group, 15 μL of plasma was treated with 5 μL of PBS, so that the concentration was the same as that of the EPPS group. […]
The whole blood was analyzed after treating with EPPS. […]
The β-amyloid concentration in each plasma was measured using detection units 1 and 2 and MB/MP was calculated by a calculation unit using [Equation 2].

β-amyloid [3] = target: T1, β-amyloid; assay: Plasma β-amyloid concentration before and after administration of EPPS, B−A by Equation 1; type: in vivo, APP/PS1 transgenic mice; set-up: tissue Jackson Laboratory (mice); host or cells: plasma / whole blood of female APP/PS1 transgenic mice; B-A (1 day) / B-A (5 days) / B-A (19 days) / B-A (33 days): unit not given here; details: for B-A (1 day): average of three measurements
Method: Female APP/PS1 transgenic mice were used as test animals. A total of 32 mice were used (eleven 5-6 month-olds and twenty-one 7.2-8.6 and 13 month-olds). 5-6-month-old mice were used since β-amyloid plaque accumulation in the brain begins from 5 months.
The transgenic APP/PS1 mouse model was B6C3-Tg(APPswe, PSEN1dE9)85Dbo/Mmjax purchased from the Jackson Laboratory (USA) and maintained and used for experiments under the guideline of the Animal Care and Use Committee.
EPPS was administered to each of the 32 mice at a dose of 1,000 mg/kg/day.
Blood was drawn from the of the retro-orbital venous plexus of the mouse using a microtube (Marienfeld, Germany) treated with 80 IU/mL heparin before and after the administration of EPPS. The blood drawing after the administration of EPPS was performed 1 day, 5 days, 19 days and 33 days after the administration of EPPS.
The blood was collected in an Eppendorf tube and centrifuged at 13,500 rpm and 4° C. for 5 minutes. Plasma separated from the cell fraction was collected in an Eppendorf tube for immediate use or for storage at −80° C. for later use.
β-Amyloid concentration in the plasma collected before and after the administration of EPPS was measured by detection units 1 and 2 of a kit. B−A was calculated by a calculation unit from the measured concentrations using [Equation 1].

[4] = tested on: β-amyloid oligomers, profibrils, fibrils and plaques; assay: Electron microscopic observation of β-amyloid aggregates; type: biochemical; details: electron microscopy
[5] = tested on: β-amyloid oligomers, profibrils, fibrils and plaque aggregates; assay: SDS-PAGE analysis of dissociation of β-amyloid aggregates; type: biochemical
[6] = EPPS-treated whole blood / EPPS-treated plasma (Equation 2)
[7] = control plasma / EPPS-treated plasma (Equation 3)
[8] = Aged (7.2 months or older) female APP/PS1 mice, one value per mouse, EPPS 1,000 mg/kg/day, plasma β-amyloid after minus before

SMILES: O=S(=O)(O)CCCN1CCN(CCO)CC1 [EPPS, 4-(2-Hydroxyethyl)-1-piperazinepropanesulfonic acid]
- MB/MP (β-amyloid [1]; [6]): 0.79
- UP/MP (β-amyloid [1]; [7]): 0.99
- MP Aβ concentration (monomer concentration in plasma of the EPPS group) (β-amyloid [1]; plasma treated with EPPS, average of three measurements): 151.58 ± 24.03
- MB/MP (β-amyloid [2]; [6]): 0.61
- UP/MP (β-amyloid [2]; [7]): 0.92
- β-amyloid 42 concentration in plasma after administration (FIG. 3a) (β-amyloid [3]; 5-6-month-old (young) and 7.2-month-old (aged) mice, before vs 24 hours after): significant increase
- β-amyloid 42 concentration in plasma, course over time (FIG. 3b) (β-amyloid [3]; 7.2-month-old (aged) mice, 1, 5, 19 and 33 days after administration): significant increase in β-amyloid 42 concentration followed by decrease
- B−A value (sign) (β-amyloid [3]; 24 hours (1 day) after administration of EPPS, all the mice): positive (+)
- B-A (5 days) (β-amyloid [3]; [8]): 93.531 and 163.986 and 51.584 and 76.049 and 170.979 and 86.122 and 108.916 and 311.820 and 134.965 and 170.656 and 207.692 and 55.115 and 209.711 and 88.441 and 105.420 and 130.096 and 118.007 and 70.105 and 185.315 and 66.259 and 214.549
- B-A (19 days) (β-amyloid [3]; [8]): 298.504 and 52.809 and 70.596 and 86.108 and 129.025 and 57.487 and 53.294 and 43.826 and 101.221 and 82.444 and 136.814 and 131.569 and 88.695 and 61.725 and 27.070 and 32.708 and 22.406 and 20.515 and 59.409
- B-A (33 days) (β-amyloid [3]; [8]): 114.33 and 23.509 and 148.154 and 21.599 and 71.410 and 4.797 and 24.240 and 11.079 and 42.621 and 31.969 and 60.179 and 39.237 and 23.448 and 33.902 and 41.596 and 59.545 and 31.762 and 51.292 and 78.101
- B-A (1 day) (β-amyloid [3]; [8]): 78.802 and 41.434 and 20.276 and 12.442 and 15.385 and 7.373 (2×) and 182.867 and 10.138 and 13.364 and 11.060 and 4.147 and 140.559 and 16.129 and 194.580 and 18.894 and 6.119 and 345.979 and 19.816 and 156.294 and 180.594
- B-A (1 day) (β-amyloid [3]; Young (5-6 months) female APP/PS1 mice, one value per mouse, EPPS 1,000 mg/kg/day, plasma β-amyloid after minus before): 52.151 and 22.674 and 98.547 and 20.430 and 191.398 and 124.731 and 108.065 and 102.326 and 89.535 and 94.186 and 146.802
- B−A value, course over time (β-amyloid [3]; since 19 days after the administration of EPPS): began to decrease
- Dissociation of β-amyloid aggregates by electron microscopic observation [4]: no β-amyloid aggregates are observed; also recorded: confirms the activity of dissociating β-amyloid dimers, oligomers, profibrils, fibrils and plaques
- Dissociation of β-amyloid aggregates (bands of Aβ 40 and Aβ 42 monomers, 4.3-4.5 kD) [5]: has the activity of dissociating β-amyloid oligomers, profibrils, fibrils and plaque aggregates; also recorded: has the activity of dissociating β-amyloid dimer, oligomer, profibril, fibril and plaque aggregates
